The test system of this assay is BDF1 spleen cells. The assay is described as follows: CTL induction, PHA-P-mediated cytotoxicity assay (51Cr-labelled P815 targets), BDF1 spleen cells. The class given is cell-based, mice. The settings on record: 5 x 10³ BDF1 spleen cells. The method, then:
Cultures and Assays: The culture medium used was Iscove's Modified Dulbecco's medium supplemented with 10% fetal bovine serum (Bocknek, Rexdale, Ontario), 5 x 10⁻⁵M 2-mercaptoethanol, 50 U/ml of Penicillin and 50 µg/ml streptomycin. All cultures were incubated at 37°C in 5% CO₂ in humid air.
For CTL assays, cultures were set up by incubating the indicated number of spleen cells, lymph node cells or thymocytes with the appropriate lymphokine in conical bottomed microtiter plates (Flow Laboratories, #76-023-05) as previously described by Teh et al, 1983, supra. Five days later the cultures were assessed for cytotoxic activity in phytohemaglutinin (PHA-P)-mediated cytotoxicity assay as described by Bevan and Cohn, J. Immunol 1975 114:559. This assay detects CTL of all specificities. A total of 3 x 10³ ⁵¹Cr-labelled P815 (H-2^d) mastocytoma target cells (available from ATCC®) and 10 µg/ml of PHA-P were added to each well. Spontaneous release during the 3.5 hr assay period was about 10% of the maximum releasable counts.

SMILES strings stand for the structures.

As to `CCCCCCCCCCCCCC(=O)O[C@@H]1[C@@H](C)[C@@]2(O)[C@@H](C=C(CO)C[C@]3(O)C(=O)C(C)=C[C@@H]23)[C@@H]2C(C)(C)[C@]12OC(C)=O` [PMA, phorbol-12-myristate-13-acetate], the “% specific lysis (M SE)” value was 3.5 ± 1.5% (PMA 0.03 ng/ml with rIL-2 20 U/ml); -2.2 ± 1.4% (PMA 0.1 ng/ml alone); 15.7 ± 5.1% (PMA 0.1 ng/ml with rIL-2 20 U/ml); -3.2 ± 1.7% (PMA 0.3 ng/ml alone); 14.8 ± 3.3% (PMA 0.3 ng/ml with rIL-2 20 U/ml); -2.5 ± 0.9% (PMA 1.0 ng/ml alone). Besides, the “% specific lysis (M SE)” value (PMA 1.0 ng/ml with rIL-2 20 U/ml) was 2.8 ± 1.3%; the “% specific lysis (M SE)” value (PMA 3.0 ng/ml alone) was -1.0 ± 1.8%; the “% specific lysis (M SE)” value (PMA 3.0 ng/ml with rIL-2 20 U/ml) stood at 4.3 ± 1.4%; the “% specific lysis (M SE)” value (PMA 10.0 ng/ml alone) is given as -0.9 ± 1.6%; the “% specific lysis (M SE)” value (PMA 10.0 ng/ml with rIL-2 20 U/ml) is given as -0.4 ± 0.9%.

The values are drawn from EP0303483A2, “Novel lymphokine and compositions thereof” (THE UNIVERSITY OF BRITISH COLUMBIA, priority 1987, dated 1989).
